What follows are compounds tested against Human recombinant PDE4 (Genbank accession no NM—006203) (Homo sapiens, UniProt Q08499) (assay: PDE4 assay (SPA, cAMP cleavage)). Details: Example 52; human recombinant PDE4, 1 hour incubation, cAMP 1×10^-5M, test compound up to 10 μM; read-out: PDE4 IC50 range.
Type: biochemical
Experimental: At the end of the incubation, the cleavage of the substrate was evaluated by the binding of the AMP product to SPA beads, which generate chemoluminescence when bound to the radioactive tracer. The AMP product inhibited the binding of the radioactive tracer to the beads, and the luminescent signal was competed.

Human recombinant PDE4 (Genbank accession no NM—006203), sequence (Q08499 1-673 isoform Q08499-2): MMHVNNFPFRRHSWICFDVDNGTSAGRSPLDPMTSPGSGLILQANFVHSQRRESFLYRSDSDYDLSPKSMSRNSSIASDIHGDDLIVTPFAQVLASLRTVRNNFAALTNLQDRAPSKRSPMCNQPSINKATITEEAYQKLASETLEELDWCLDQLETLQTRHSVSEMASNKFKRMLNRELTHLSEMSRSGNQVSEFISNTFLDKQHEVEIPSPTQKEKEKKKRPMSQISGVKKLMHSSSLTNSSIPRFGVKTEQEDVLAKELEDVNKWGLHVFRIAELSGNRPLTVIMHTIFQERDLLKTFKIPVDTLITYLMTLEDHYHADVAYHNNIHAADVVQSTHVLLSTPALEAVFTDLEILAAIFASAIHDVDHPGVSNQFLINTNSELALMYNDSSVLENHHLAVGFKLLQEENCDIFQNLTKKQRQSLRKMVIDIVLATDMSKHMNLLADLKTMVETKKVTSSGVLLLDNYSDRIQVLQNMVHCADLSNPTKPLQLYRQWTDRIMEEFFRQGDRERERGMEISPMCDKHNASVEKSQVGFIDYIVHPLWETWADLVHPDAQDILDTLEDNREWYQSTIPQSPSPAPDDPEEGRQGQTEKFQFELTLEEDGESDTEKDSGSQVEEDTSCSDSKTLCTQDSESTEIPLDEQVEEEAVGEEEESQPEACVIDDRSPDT

| IC50 | SMILES |
| --- | --- |
| 500 to 1000 nM | COC(=O)CCc1ccc(-c2ccc(OC)c3nc(C4CC4)nn23)cc1 [Compound 133, 3-[4-(2-Cyclopropyl-8-methoxy-[1,2,4]triazolo[1,5-a]pyridin-5-yl)-phenyl]-propionic acid methyl ester] |
| 500 to 1000 nM | COc1ccc(-c2cccc(NS(C)(=O)=O)c2)n2nc(C3CC3)nc12 [Compound 113, N-[3-(2-Cyclopropyl-8-methoxy-[1,2,4]triazolo[1,5-a]pyridin-5-yl)-phenyl]-methanesulfonamide] |
| > 1000 nM | COc1ccc(-c2ccc(S(=O)(=O)NCCO)cc2)n2nc(C3CC3)nc12 [Compound 134, 4-(2-Cyclopropyl-8-methoxy-[1,2,4]triazolo[1,5-a]pyridin-5-yl)-N-(2-hydroxy-ethyl)-benzenesulfonamide] |

Same assay, conditions: Example 53; PDE4 assay as in example 52; read-out: PDE4 IC50 range

| IC50 | SMILES |
| --- | --- |
| < 500 nM | COc1ccc(-c2ccc(C#N)cc2)n2nc(C3(C(=O)NCc4ccccc4)CC3)nc12 [Compound 206, 1-[5-(4-Cyano-phenyl)-8-methoxy-[1,2,4]triazolo[1,5-a]pyridin-2-yl]-cyclopropanecarboxylic acid benzylamide] |
| < 500 nM | COc1ccc(-c2cccc(C#N)c2)n2nc(C3(C(=O)NC(C)C)CC3)nc12 [Compound 194, 1-[5-(3-Cyano-phenyl)-8-methoxyl-[1,2,4]triazolo[1,5-a]pyridin-2-yl]-cyclopropanecarboxylic acid isopropylamide] |
| < 500 nM | COc1ccc(-c2cccc(C(C)=O)c2)n2nc(C3(C(=O)N4CCOCC4)CC3)nc12 [Compound 223, 1-(3-{8-Methoxy-2-[1-(morpholine-4-carbonyl)-cyclopropyl]-[1,2,4]-triazolo[1,5-a]pyridin-5-yl}-phenyl)-ethanone] |
| < 500 nM | COc1ccc(-c2ccc(C#N)cc2)n2nc(C3(C(=O)NCCS(C)(=O)=O)CC3)nc12 [Compound 208, 1-[5-(4-Cyano-phenyl)-8-methoxy-[1,2,4]triazolo[1,5-a]pyridin-2-yl]-cyclopropanecarboxylic acid (2-methanesulfonyl-ethyl)-amide] |
| < 500 nM | COc1ccc(-c2cccc(C#N)c2)n2nc(C3(C(=O)NCCS(N)(=O)=O)CC3)nc12 [Compound 198, 1-[5-(3-Cyano-phenyl)-8-methoxyl-[1,2,4]triazolo[1,5-a]pyridin-2-yl]-cyclopropanecarboxylic acid (2-sulfamoyl-ethyl)-amide] |
| < 500 nM | COc1ccc(-c2ccc3c(c2)CNC3=O)n2nc(C3CC3)nc12 [Compound 171, 5-(2-Cyclopropyl-8-methoxy-[1,2,4]triazolo[1,5-a]pyridin-5-yl)-2,3-dihydro-isoindol-1-one] |
| < 500 nM | COc1ccc(-c2ccc3c(c2)COC3=O)n2nc(C3(C(=O)NCC4CCCCC4)CC3)nc12 [Compound 270, 1-[8-Methoxy-5-(1-oxo-1,3-dihydro-isobenzofuran-5-yl)-[1,2,4]triazolo[1,5-a]pyridin-2-yl]-cyclopropanecarboxylic acid cyclohexylmethyl-amide] |
| > 1000 nM | COc1ccc(-c2ccc(C#N)cc2)n2nc(C3(C(=O)N4CCN(C)CC4)CC3)nc12 [Compound 204, 4-{8-Methoxy-2-[1-(4-methyl-piperazine-1-carbonyl)-cyclopropyl]-[1,2,4]triazolo[1,5-a]pyridin-5-yl}-benzonitrile] |
| < 500 nM | COc1ccc(-c2ccc(C#N)cc2)n2nc(C3(C(N)=O)CC3)nc12 [Compound 148, 1-[5-(4-Cyano-phenyl)-8-methoxy-[1,2,4]triazolo[1,5-a]pyridin-2-yl]-cyclopropanecarboxylic acid amide] |
| 500 to 1000 nM | COc1ccc(-c2cc(C#N)ccn2)n2nc(C3CC3)nc12 [Compound 145, 2-(2-Cyclopropyl-8-methoxy-[1,2,4]triazolo[1,5-a]pyridin-5-yl)-isonicotinonitrile] |
| < 500 nM | COc1ccc(-c2ccc(C#N)cc2)n2nc(C3(C(=O)NC(C)C)CC3)nc12 [Compound 209, 1-[5-(4-Cyano-phenyl)-8-methoxy-[1,2,4]triazolo[1,5-a]pyridin-2-yl]-cyclopropanecarboxylic acid isopropylamide] |
